Measured values taken from patent US4440769A, “2-(4-Phenylalkanoylpiperazin-1-yl) quinazoline compounds, pharmaceutical compositions and method of producing α1 antagonistic activity” (Abbott Laboratories, priority 1983, dated 1984).

Tests used:
[1] = test system: α1-adrenergic receptor; conditions: Federation Proceedings, Vol. 41, No. 5, Abst. No. 7064; cited from earlier work
[2] = test system: α1-adrenergic receptor; assay: α1-adrenergic receptor selectivity and antagonism (general statements); conditions: result in words
[3] = test system: α-adrenergic receptor; assay: α-adrenergic receptor antagonistic activity in the isolated rabbit aorta (norepinephrine-induced contraction); assay type: cell-based; conditions: for pA2: norepinephrine agonist, 37±0.5° C., pH 7.4, negative log of concentration requiring doubled norepinephrine
Experimental: Female rabbits, weighing 2 to 5 kg., are sacrificed by cervical dislocation. […] The aorta is placed on cylindrical sticks and cleaned of excess fat and connective tissue, then cut into 2 tissue segments approximately 20 mm in length. Each segment of aorta is then spiraled in strips 3.5 mm wide by turning the stick as a scapel is applied, while leaving a section of 2-3 mm at each end of the aorta section intact. The spiraled tissue is mounted in an aerated (as above) tissue bath of 10 ml. of Kreb's buffer and is attached to a Grass force transducer with an initial applied tension of 2 grams. The tissue is allowed to equilibrate in the tissue bath at a temperature of 37±0.5° C. until the tension on the force transducer stabilizes at 2 grams. A cumulative dose-response curve of contraction for the tissue is determined by contacting the tissue with 10 to 400 ul of the standard agonist norepinephrine in log doses of from 1×10^-8 to 1×10^-3M. […] The degree of antagonistic activity is determined by varying the concentration of the test compound and measuring its pA2 value, i.e., the negative log of the concentration of the test compound required to inhibit the norepinephrine response to the extent that the norepinephrine concentration must be doubled to obtain the maximum standard norepinephrine contractile response of the tissue.

[4] = molecular target: α1-adrenergic receptor; assay: radioligand binding, displacement of [3H] prazosin in rat brain cortex tissue; conditions: for Ki: [3H] prazosin, calculated from IC50; for KIα2/KIα1: ratio of KI values, α1 selectivity
[5] = molecular target: T1, α2-adrenergic receptor (Rattus norvegicus, UniProt P22909); assay: biochemical; assay type: binding; conditions: rat brain cortex, [3H] yohimbine; calculated from IC50
T1 sequence (P22909 1-465): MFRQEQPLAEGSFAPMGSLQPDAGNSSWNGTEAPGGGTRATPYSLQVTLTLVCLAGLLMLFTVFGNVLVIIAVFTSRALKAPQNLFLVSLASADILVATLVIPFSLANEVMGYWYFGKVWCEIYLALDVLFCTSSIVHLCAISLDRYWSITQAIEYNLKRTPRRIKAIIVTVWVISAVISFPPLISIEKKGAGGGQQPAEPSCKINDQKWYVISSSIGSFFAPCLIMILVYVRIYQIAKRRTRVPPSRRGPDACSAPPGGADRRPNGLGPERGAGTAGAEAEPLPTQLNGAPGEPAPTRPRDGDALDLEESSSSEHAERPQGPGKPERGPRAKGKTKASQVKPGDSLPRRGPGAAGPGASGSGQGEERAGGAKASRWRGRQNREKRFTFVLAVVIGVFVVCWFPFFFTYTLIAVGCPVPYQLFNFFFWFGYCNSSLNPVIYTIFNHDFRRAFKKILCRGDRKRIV

[6] = test system: spontaneously hypertensive rat (Okamoto rats); assay: arterial blood pressure in the spontaneously hypertensive rat (tail cuff); assay type: in vivo; conditions: oral, 30 or 100 mg./kg.
Excerpt: An occluding cuff, operatively connected to a programmed sphygmomanometer, is placed over the tail of each rat of the group and retained near the tail base. […] A photocell is placed distal to the cuff to detect pulses resulting from the forward motion of blood flow with each heartbeat of the rat. As the pressure in the cuff increases, measurable pulses disappear at the point where the cuff pressure equals the arterial blood pressure. Measurable pulses reappear during deflation at approximately the same pressure, and arterial blood pressure is thereby established by cuff pressure at the point of pulse appearance. The heart rate is determined from the arterial pulse wave. Doses of 30 or 100 mg./kg. of the preferred compound of Example II are administered orally to each rat of the test groups and five interference-free signals are recorded on a Model 7 Grass polygraph for each rat at various measurement periods following administration.

Row | SMILES | α1-antagonism [2] | Ki [4] [nM] | KIα2/KIα1 [4] | Ki [5] [nM] | α1-adrenergic receptor inhibition upon photolysis [1] | selectivity for α1-adrenergic receptor sites [2] | pA2 [3] | inhibition of increase in contractile force produced by norepinephrine ([3]; result in words) | decrease of arterial blood pressure [6]
1 | COc1cc2nc(N3CCN(C(=O)c4ccc(N=[N+]=[N-])cc4)CC3)nc(N)c2cc1OC [2-(4-[4-azido-benzoyl]-piperazin-1-yl)-4-amino-6,7-dimethoxyquinazoline] |  |  |  |  | irreversible non-competitive α1 -adrenergic receptor inhibition |  |  |  | 
2 | COc1cc2nc(N3CCN(C(=O)CCCCc4ccc(N=[N+]=[N-])cc4)CC3)nc(N)c2cc1OC [4-azidophenyl analog, 4-amino-6,7-dimethoxy-2-[4-(5-[4-azidophenyl]pentanoyl)-1-piperazinyl] quinazoline] | produce α1 -antagonism |  |  |  |  | high degree of selectivity for α1 -adrenergic receptor sites |  |  | 
3 | COc1cc2nc(N3CCN(C(=O)c4ccco4)CC3)nc(N)c2cc1OC [prazosin, reference compound] |  |  |  |  |  |  | 8.58 |  | 

Now from value to compound, other results behind:

Row | α1-antagonism [2] | Ki [4] [nM] | KIα2/KIα1 [4] | Ki [5] [nM] | SMILES | α1-adrenergic receptor inhibition upon photolysis [1] | selectivity for α1-adrenergic receptor sites [2] | pA2 [3] | inhibition of increase in contractile force produced by norepinephrine ([3]; result in words) | decrease of arterial blood pressure [6]
4 |  | 17 | 730.9 | 12400 | COc1cc2nc(N3CCN(C(=O)c4ccc(N)cc4)CC3)nc(N)c2cc1OC [C, 2-(4-[4-aminobenzoyl]piperazin-1-yl)-4-amino-6,7-dimethoxyquinazoline, reference compound] |  |  | 7.45 |  | 
5 | produce α1 -antagonism | 4.5 | 1,094.5 | 4930 | COc1cc2nc(N3CCN(C(=O)CCCCc4ccc(N)cc4)CC3)nc(N)c2cc1OC.Cl.Cl [Example II, 4-amino-6,7-dimethoxy-2-[4-(5-[4-aminophenyl]pentanoyl)-1-piperazinyl] quinazoline dihydrochloride] |  | high degree of selectivity for α1 -adrenergic receptor sites | 7.51 | inhibited | decrease the arterial blood pressure of rats of each group
